Assay results reported in patent US5872126A, “Methods and compositions for treating preterm labor” (priority 1997, dated 1999).
“Also recorded” adds a separate entry of the source.

What was measured:
Assay type in all cases: in vivo, Sprague-Dawley rat
parturition in the rat [1] = experiment: Effect of test compound on parturition in the rat, dosed GD 6 through LD 20 (Example 1); details: for Mean Length of Gestation ± SD: oral gavage
From the text: Effect of the 5α-reductase type 1 inhibitor 3-oxo-4-aza-4,7β-dimethyl-16β-(4-chlorophenoxy)-5α-androstane on parturition in the rat
Fifty female Sprague-Dawley rats (Charles River Laboratories, Raleigh, N.C.) approximately 11 weeks old, weighing from 211 to 297 grams were assigned to the present study. The female rats were housed singly in stainless steel hanging cages prior to and after cohabitation with a male of the same strain. During cohabitation, females were caged with untreated males of the same strain in a ratio of 1 female: 1 male. On Gestational Day (GD) 15 to 17, females were transferred to individual clear polycarbonate boxes containing Beta-Chip bedding in preparation for delivery and in which they remained with their litters throughout the lactation period. Room temperature was maintained between 19.4° and 25.0° C.; room humidity was maintained between 40 and 60% relative humidity, and room lights were set for alternating 12-hour periods of light and dark throughout the study. All rats had free access to PMI Certified Rodent Diet #5002 and tap water throughout the study.
Vehicle consisted of 0.5% methylcellulose in deionized water with […] sodium laurel sulfate (SLS) and was prepared on a weekly basis and refrigerated when not in use.
The high dose formulation of 3-oxo-4-aza-4,7β-dimethyl-16β-(4-chlorophenoxy)-5α-androstane ("test compound") (4 mg/mL, in vehicle) was prepared on a weekly basis and was refrigerated when not in use. All lower does formulations (0.5, 1.0 and 2.0 mg/mL) were prepared on a daily basis by diluting the high dose preparation with the vehicle. Ten females were randomly allocated to each of the following treatment groups: Control, 2.5 mg test compound/kg/day, 5.0 mg test compound/kg/day, 10 mg test compound/kg/day, 20 mg test compound/kg/day. The formulation was administered by oral gavage in a dosage volume of 5 ml/kg based on the most recent body weight. Females were treated once daily with the dose above from GD 6 through LD (lactation day) 20.
Each female was housed with one untreated male of the same strain. […] The day of finding the plugs and/or sperm was considered GD 0.
From GD21 until the completion of delivery (LD 0), each pregnant female was observed on four occasions throughout the day. On GD 24, females were observed twice at 7:30 am and 10:00 am. The onset and completion of delivery and any signs of difficulty in parturition were noted. Those females that had completed delivery at the first observation of the day were assigned a whole day value for the length of gestation (e.g. 21.0 or 22.0 days). Those females that completed delivery during the workday were assigned a half day value (e.g. 21.5 or 22.5 days).

parturition in the rat [2] = experiment: Parturition after termination of drug treatment on GD 17, 19 or 20 (Example 2); details: 20 mg/kg/day; for Mean Length of Gestation ± SD: in days (unit assumed)
From the text: In order to determine if termination of drug treatment with the 5α-reductase type 1 inhibitor 3-oxo-4-aza-4,7β-dimethyl-16β-(4-chlorophenoxy)-5α-androstane ("test compound") on GD 17, 19 or 20 would allow the 3-oxo-4-aza-4,7β-dimethyl-16β-(4-chlorophenoxy)-5α-androstane-treated pregnant females to initiate and complete parturition, Sprague-Dawley rats (Charles River Laboratories, Raleigh, N.C.) were approximately ten weeks of age and weighted 223 to 276 grams on Gestation Day 0 (GD 0, the day of finding copulatory plugs). The design of the study is as described below. All animals were housed and fed as described in Example 1, with the exception of a 1 hour transient electrical failure, during which power outage dim illumination was provided by emergency backup lighting.
A dose of 20 mg/kg/day of the test compound was given once daily by oral gavage to the three treatment groups of 10 mated females each, designated by the treatment interval (GD 6-17, GD 6-19, and GD 6-20), at a dose volume of 5 mL/kg. (GD 6-17 received treatment from Gestational Day 6 through 17, etc.) An additional group of 10 females similarly received the vehicle (0.5% methylcellulose in deionized water with 0.02% sodium lauryl sulfate (SLS)) on GD 6-20 and served as the control.

serum progesterone = experiment: Serum progesterone in pregnant rats (Example 3); details: 20 mg/kg/day
Description: In order to determine if the effects in the experiments conducted in Examples 1 and 2 were due to decreased progesterone catabolism associated with inhibition of 5α-reductase by the 5α-reductase type 1 inhibitor 3-oxo-4-aza-4,7β-dimethyl-16β-(4-chlorophenoxy)-5α-androstane ("test compound"), the following study was performed with the 5α-reductase inhibitor 3-oxo-4-aza-4,7β-dimethyl-16β-(4-chlorophenoxy)-5α-androstane and the progesterone antagonist RU-486.
Fifty-six pregnant female Sprague-Dawley rats (Charles River Laboratories, Raleigh, N.C.), approximately 10.5 weeks old weighing from 212 to 319 grams were employed in the study. They were fed and housed as described in EXAMPLE 1. The females were assigned to the following groups based on a weight independent random allocation scheme:
A dose of 10 mg/kg off RU-486 was selected based on the studies of Abdellilah et al., Progesterone and Mifepristone modify principally the response of circular myometrium to oxytocin in preparturient rats: comparison with response to acetylcholine and to calcium J. Pharmacol. and Exp. Therp.
The drugs were administered by oral gavage. The control article and vehicle consisted of 0.5% methylcellulose in deionized water with 0.02% sodium lauryl sulfate (SLS) and were prepared on a weekly basis and refrigerated when not in use. The test compound formulation (4 mg/mL, in vehicle) was prepared on a weekly basis and was refrigerated when not in use. The RU-486 formulation (2 mg base compound/mL, in 0.5% methylcellulose in deionized water) was prepared on a daily basis.

## C[C@H]1C[C@H]2N(C)C(=O)CC[C@]2(C)[C@H]2CC[C@]3(C)C[C@@H](Oc4ccc(Cl)cc4)C[C@H]3[C@H]12 [test compound, 3-oxo-4-aza-4,7β-dimethyl-16β-(4-chlorophenoxy)-5α-androstane]
Parturition in the rat [1]; 2.5 mg/kg/day, delivery day GD 22.0
  number of females completing parturition: 2
Parturition in the rat [1]; 2.5 mg/kg/day, delivery day GD 22.5
  number of females completing parturition: 7
Parturition in the rat [1]; 2.5 mg/kg/day
  Mean Length of Gestation ± SD: 22.8 ± 0.4 days
Parturition in the rat [1]; 5.0 mg/kg/day
  Sacrificed GD 24 due to failure to initiate or complete parturition: 3
  Mean Length of Gestation ± SD: 22.7 ± 0.7 days
Parturition in the rat [1]; 5.0 mg/kg/day, delivery day GD 22.0
  number of females completing parturition: 2
Parturition in the rat [1]; 5.0 mg/kg/day, delivery day GD 22.5
  number of females completing parturition: 2
Parturition in the rat [1]; 5.0 mg/kg/day, delivery day GD 23.0
  number of females completing parturition: 2
Parturition in the rat [1]; 10.0 mg/kg/day
  Sacrificed GD 24 due to failure to initiate or complete parturition: 3
  Mean Length of Gestation ± SD: 22.8 ± 0.3 days
Parturition in the rat [1]; 10.0 mg/kg/day, delivery day GD 22.5
  number of females completing parturition: 2
Parturition in the rat [1]; 10.0 mg/kg/day, delivery day GD 23.0
  number of females completing parturition: 3
Parturition in the rat [1]; 20 mg/kg/day
  Sacrificed GD 24 due to failure to initiate or complete parturition: 6
  Mean Length of Gestation ± SD: 22.9 ± 0.2 days
Parturition in the rat [1]; 20 mg/kg/day, delivery day GD 22.5
  number of females completing parturition: 1
Parturition in the rat [1]; 20 mg/kg/day, delivery day GD 23.0
  number of females completing parturition: 3
Parturition in the rat [1]; 5, 10 and 20 mg/kg/day
  failure to initiate or complete parturition: treatment related increases in the failure to initiate or complete parturition; also recorded: drug-related increases in the incidence of females that failed to initiate or complete parturition
Parturition in the rat [1]; all drug-treated groups, 2.5-20 mg/kg/day
  length of gestation: treatment-related increases in the length of gestation
Parturition in the rat [2]; all dosing intervals
  length of gestation relative to controls: increases in the length of gestation
Parturition in the rat [2]; dosed GD 6-17, delivery day GD 22.0
  number of pregnant females completing parturition: 3
Parturition in the rat [2]; dosed GD 6-17, delivery day GD 22.5
  number of pregnant females completing parturition: 1
Parturition in the rat [2]; dosed GD 6-17, delivery day GD 23.0
  number of pregnant females completing parturition: 6
Parturition in the rat [2]; dosed GD 6-17
  Mean Length of Gestation ± SD: 22.6 ± 0.5
Parturition in the rat [2]; dosed GD 6-19
  Sacrificed GD 24 due to failure to initiate or complete parturition: 1
  pregnant females that failed to initiate or complete delivery (fraction): 1/10
  Mean Length of Gestation ± SD: 22.8 ± 0.4
Parturition in the rat [2]; dosed GD 6-19, delivery day GD 22.0
  number of pregnant females completing parturition: 1
Parturition in the rat [2]; dosed GD 6-19, delivery day GD 22.5
  number of pregnant females completing parturition: 3
Parturition in the rat [2]; dosed GD 6-19, delivery day GD 23.0
  number of pregnant females completing parturition: 4
Parturition in the rat [2]; dosed GD 6-19, delivery day GD 23.5
  number of pregnant females completing parturition: 1
Parturition in the rat [2]; dosed GD 6-20
  Sacrificed GD 24 due to failure to initiate or complete parturition: 2
  pregnant females that failed to initiate or complete delivery (fraction): 2/9
  Mean Length of Gestation ± SD: 23.3 ± 0.5
Parturition in the rat [2]; dosed GD 6-20, delivery day GD 23.0
  number of pregnant females completing parturition: 5
Parturition in the rat [2]; dosed GD 6-20, delivery day GD 24
  number of pregnant females completing parturition: 2
Serum progesterone; GD 15
  mean serum progesterone, times above control group 1: approximately 1.6 times
Serum progesterone; GD 17
  mean serum progesterone, times above control group 1: ~1.4 times
Serum progesterone; GD 19
  mean serum progesterone, times above control group 1: approximately 1.6 times
Serum progesterone; GD 21
  mean serum progesterone, times above control group 1: ~3.3 times
Serum progesterone; Group 3
  correlation of individual serum progesterone values on GD 21 and failure to initiate or complete parturition: positive correlation
